We go through 17 compounds from US20210323918A1, “COMPOSITIONS AND METHODS FOR SUPPRESSING AND/OR TREATING A GROWTH RELATED DISEASE AND/OR A CLINICAL CONDITION THEREOF” (CK Biotech Inc., priority 2018, published 2021).

The assay has as its target T1, CXXC5-DVL interaction (Homo sapiens, UniProt O14640).
T1 construct: 5 mg/ml purified DVL PDZ domain was incubated in each well
T1 sequence (O14640 251-323 limits assumed): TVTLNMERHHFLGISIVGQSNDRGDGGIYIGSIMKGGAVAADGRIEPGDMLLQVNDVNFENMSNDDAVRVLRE
The assay is described as follows: In vitro CXXC5-DVL binding assay (FITC-tagged PTD-DBMP on DVL PDZ domain). The note with it: read-out: CXXC5-DVL interaction (%). As to the method:
Screening for compounds that inhibit the CXXC5-DVL interaction. […] Briefly, 5 mg/ml purified DVL PDZ domain was incubated in each well of a 96-well Maxibinding Immunoplate (SPL) at 4° C. for 16 hours. After the addition of 10 μM FITC-tagged PTD-DBMP to each well, each compound in the chemical library or control (DMSO) was treated to the well at a final concentration of 30 μM. The fluorescence intensity was measured using a Fluorstar Optima microplate reader (BGM Lab Technologies, Ortenberg, Germany). The binding values were calculated as a percent ratio of the fluorescent intensity normalized to the DMSO-treated control.

Setting [1] is: compound 30 μM, fluorescent intensity normalized to DMSO-treated control.

Read-outs that look alike come from different tables or passages of the source.

`COC(=O)C1=C(C)N/C(=C/c2cc(C)n(-c3ccccc3F)c2C)C1=O` [Compound 4]: under setting [1], the remaining activity at 30 µM stood at 4.76%. Same read-out and setting: in the case of `CC(N)(Cc1ccc(O)c(O)c1)C(=O)O` (centres unmarked) [Compound 14] it was 7.65%; in that of `O=C(OCCN1CCOCC1)C1(c2ccccc2)CCCCC1` [Compound 18], 5.7%. In the case of `COc1ccc(C2CC(=O)C3=C(C2)Nc2onc(C)c2C3c2ccc(O)c(O)c2)cc1OC` (centres unmarked) [Compound 7], the remaining activity at 30 µM under setting [1] amounted to 0.72%. The same measure, in the same setting: for `COc1ccc(C2CC(C(F)(F)F)n3ncc(C(=O)O)c3N2)cc1OC` (centres unmarked) [Compound 2] the value was 1.01%; for `O=c1c(O)c(-c2ccc(O)cc2O)oc2cc(O)cc(O)c12` [Compound 15], 7.43%; for `O=C1Nc2ccccc2/C1=C1/Nc2ccccc2/C1=N\O` [Compound 12, indirubin-3′-oxime, reference compound], 7.65%. Take `CN(C)c1ccc(O)c2c1C[C@H]1C[C@H]3[C@H](N(C)C)C(O)=C(C(N)=O)C(=O)[C@@]3(O)C(O)=C1C2=O` [Compound 16]: the remaining activity at 30 µM came out at 4.37%. Same read-out and setting: for `NC(Cc1cc(O)c(O)cc1O)C(=O)O` (centres unmarked) [Compound 10] the value was 1.39%. As for `Cc1cc(C)c2c(O)nc(SCC(=O)c3ccc(O)c(O)c3)nc2n1` [Compound 3], the remaining activity at 30 µM under setting [1] is 4.01%.

For the compound `Oc1cc(O)cc(/C=C/c2ccc(O)c(O)c2)c1` [Compound 17], the remaining activity at 30 µM under setting [1] worked out at 7.61%. The same measure, in the same setting: in the case of `CN1CCc2cc(O)cc3c2[C@H]1Cc1ccc(O)c(O)c1-3` [Compound 9] it was 2.5%; in that of `CCN(CC)S(=O)(=O)c1ccc(OC)c(Nc2cc(-c3ccccc3)nc(C)n2)c1` [Compound 6], 7.63%.

For `O=c1cc(O)cc(/C=C/c2ccc(O)c(O)c2)o1` [Compound 11], under setting [1], the remaining activity at 30 µM turned out to be 1.73%. Same read-out and setting: for `O=c1c(O)c(-c2cc(O)c(O)c(O)c2)oc2cc(O)cc(O)c12` [Compound 13] the value was 7.66%; for `COc1ccc(C)cc1/N=N/c1ccc(O)c2nc(/C=N/O)ccc12` [Compound 1], 7.62%. Regarding `O=C(O)C1Sc2[nH]c(=O)sc2C2c3cc(Br)cc(Br)c3OC(=O)C12` (centres unmarked) [Compound 5], the remaining activity at 30 µM under setting [1] stood at 1.19%.
